Assay results: article PMC1920558 (PLoS ONE, 2007)
“Also recorded” adds a separate entry of the source. Where a SMILES comes first, the peptide text is derived from it.

Columns and labels:
NEP = NEP digestion, products by RP-HPLC and MS; type: in vitro ADME; details: 37°C; for effect of NEP exposure on peptide level: 60 µM peptide, 1.2 µM NEP, 4 hours, 100 mM Tris-HCl pH 7.4, 1% Triton X-100, RP-HPLC
Method: Figure 4 NEP preferentially degrades monomeric forms of AChE586-599. (A) 60 µM of either substance P or T40 were incubated with or without 1.2 µM NEP (37°C, 4 hours) and the digestion mixture subjected to RP-HPLC. (B) Positions of NEP initial cleavages (arrows) within AChE586-599. (C) Cleavage map after complete NEP digestion of AChE586-599. 40 µM AChE586-599 was incubated with 772 nM NEP (30 min (B) or 4 hours (C), 37°C) and RP-HPLC peaks analyzed by MS. (D) NEP degrades AChE586-599 oligomers. […] Digestion products were analyzed as described in Figure 3C. Arrows indicate two digested AChE586-599 oligomers. (E) T40/IDE products are substrates for NEP. 60 µM T40 was incubated with 50 nM IDE (37°C, 30 min) and products separated by RP-HPLC. Peaks e–f (see Figure. 2C) were lyophilized, incubated with 772 nM NEP (37°C, 2 hours) and subjected to RP-HPLC.
60 µM substance P or T40 were incubated with or without 1.2 µM NEP (4 hours), stopped (0.5% trifluoroacetic acid) and subjected to RP-HPLC.

IDE (insulysin), 50 nM = test: IDE in 100 mM KHPO4/KH2PO4 buffer pH 7.5 (buffer A); details: 37°C, up to 2 hours
NEP (neprilysin), 1.2 µM = test: NEP in 100 mM Tris-HCl pH 7.4, 1% Triton X-100 (buffer B); details: 37°C, up to 4 hours
IDE [1] = biological target: T1, IDE (Rattus norvegicus, UniProt P35559); test: Specificity/inhibition of T40-degrading activity of IDE; type: biochemical; parameters: purchased Merck, UK; details: 16 µM T40, 22 nM IDE, 37°C, 90 min
T1 sequence (P35559 1-1019): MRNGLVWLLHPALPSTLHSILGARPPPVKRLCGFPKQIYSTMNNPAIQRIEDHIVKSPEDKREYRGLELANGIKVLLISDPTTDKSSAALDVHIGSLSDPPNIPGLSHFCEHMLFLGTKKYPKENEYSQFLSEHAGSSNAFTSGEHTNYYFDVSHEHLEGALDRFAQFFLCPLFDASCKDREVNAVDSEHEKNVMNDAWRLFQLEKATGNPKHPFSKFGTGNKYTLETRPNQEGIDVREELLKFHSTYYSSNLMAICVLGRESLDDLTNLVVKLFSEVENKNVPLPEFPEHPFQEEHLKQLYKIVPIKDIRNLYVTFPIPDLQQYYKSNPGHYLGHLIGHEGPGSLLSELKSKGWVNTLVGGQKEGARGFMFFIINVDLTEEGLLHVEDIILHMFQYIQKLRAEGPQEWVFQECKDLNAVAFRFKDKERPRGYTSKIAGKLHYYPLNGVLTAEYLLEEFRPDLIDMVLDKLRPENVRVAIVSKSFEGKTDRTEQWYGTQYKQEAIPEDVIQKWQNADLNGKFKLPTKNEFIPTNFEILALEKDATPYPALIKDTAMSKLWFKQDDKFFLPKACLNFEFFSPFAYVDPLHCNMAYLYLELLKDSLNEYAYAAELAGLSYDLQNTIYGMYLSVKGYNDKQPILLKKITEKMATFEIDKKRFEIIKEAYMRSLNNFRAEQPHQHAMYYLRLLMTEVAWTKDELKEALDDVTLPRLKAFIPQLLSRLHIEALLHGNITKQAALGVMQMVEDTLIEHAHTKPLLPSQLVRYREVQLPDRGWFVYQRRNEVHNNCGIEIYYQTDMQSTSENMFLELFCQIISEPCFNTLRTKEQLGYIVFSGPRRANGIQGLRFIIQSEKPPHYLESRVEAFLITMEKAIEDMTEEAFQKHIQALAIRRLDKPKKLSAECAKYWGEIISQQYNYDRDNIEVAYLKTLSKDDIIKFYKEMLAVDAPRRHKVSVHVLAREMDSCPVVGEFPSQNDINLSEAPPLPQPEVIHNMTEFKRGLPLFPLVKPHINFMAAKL
Method: (§1) 16 µM T40 was incubated with or without 22 nM IDE (37°C) and the reaction stopped as indicated. (B) Specificity of IDE activity. […] For (A) and (B), digestion products were resolved (10% Tris-Tricine SDS-PAGE), electro-blotted onto nitrocellulose and probed with KD69 (specific for the T40). Marker proteins are indicated. Arrows indicate the positions of T40 monomers and dimers. (C) 60 µM T40 was incubated with or without 50 nM IDE (37°C) and products separated by RP-HPLC (peaks annotated a–h). (D) Positions of IDE initial cleavages (arrows) within T40 (2 min digestion). (E) Identity of the major peptides (italics) and of CSR species in peaks a–h, analyzed by MS.
(§2) IDE and NEP (Merck, UK) digestions were at 37°C in 100 mM KHPO4/KH2PO4 buffer pH 7.5 (buffer A) or 100 mM Tris-HCl pH 7.4, 1% Triton X-100 (buffer B) respectively. 16 µM T40 was incubated with 22 nM IDE or 309 nM NEP, and 16 or 14.8 µM AChE586-599 oligomers with 16.3 nM IDE or 285 nM NEP. Reactions were stopped by boiling in a Laemmli's dissociation buffer with 100 mM DTT and subjected to SDS-PAGE (10% Tris-Tricine for T40 and 16.5% Tris-Tricine for AChE586-599 oligomers). […]

IDE [2] = biological target: T1, IDE; test: IDE digestion of T40, SDS-PAGE and western blot with KD69; details: 16 µM T40, 22 nM IDE, 37°C
Method: as §1, §2

IDE [3] = biological target: T1, IDE; test: IDE digestion, products by RP-HPLC and MS; details: 37°C
Method: as §1
(A) Positions of IDE initial cleavages (arrows) within AChE586-599. […] 63 µM AChE586-599 was incubated with or without 45 nM IDE (A) or 273 nM IDE (B)(37°C, 30 min) and RP-HPLC peaks analyzed by MS. […] AChE586-599 oligomers (16 µM) cross-linked by photo-induced cross-linking were incubated with or without 16.3 nM IDE (37°C). Digestion products were resolved (16.5% Tris-Tricine SDS-PAGE), electro-blotted onto nitrocellulose and probed with Mab 105A (specific for AChE586-599 in β-sheet conformation). Marker proteins are indicated.
To identify degradation products, 60 µM T40 was incubated with 50 nM IDE; 63 µM AChE586-599 with 45 nM or 273 nM IDE; and 40 µM AChE586-599 with 772 nM NEP and separated by reverse phase-HPLC (RP-HPLC). Peaks were collected and identities determined on a Q-TOF Micro mass spectrometer (Micromass, UK) with MassLynx 4.0 and MaxEnt 3 software. Lyophilized HPLC separated T40/IDE products were used for surface tension and seeding experiments.
Reaction products were resolved by RP-HPLC with a Sephasil C4 column (5 µm, 4.6×250 mm; Amersham Biosciences, UK) using a 5–95% linear gradient of acetonitrile in 0.1% trifluoroacetic acid over 25 min (flow rate 1 ml/min). The eluent was monitored by UV absorption at 280 nm.

IDE (insulysin), 45 nM = test: IDE in 100 mM KHPO4/KH2PO4 buffer pH 7.5 (buffer A); details: 37°C, up to 30 min
NEP (neprilysin), 772 nM = test: NEP in 100 mM Tris-HCl pH 7.4, 1% Triton X-100 (buffer B); details: 37°C, up to 4 hours

substance P [reference compound]
effect of NEP exposure on peptide level (NEP): degradation

DTLDEAERQWKAEFHRWSSYMVHWKNQFDHYSKQDRCSDL
cleaved bond (IDE (insulysin), 50 nM): Phe14-His15, first_seen, 2 min; also recorded: Ser19-Tyr20, first_seen, 2 min; also recorded: Trp24-Lys25, first_seen, 2 min
not cleaved (NEP (neprilysin), 1.2 µM): levels remained unchanged after exposure to NEP (4 hours)

insulin
concentration giving complete inhibition of IDE degradation of T40 (IDE [1]; western blot, equimolar to T40): 16 µM
inhibition of IDE degradation of T40 (IDE [1]; insulin or IgG 2–16 µM, 1,10-phenanthroline 1 and 10 mM): dose dependent inhibition

CSCC[C@H](NC(=O)[C@H](Cc1ccc(O)cc1)NC(=O)[C@H](CO)NC(=O)[C@H](CO)NC(=O)[C@H](Cc1c[nH]c2ccccc12)NC(=O)[C@H](CCCNC(=N)N)NC(=O)[C@H](Cc1c[nH]cn1)NC(=O)[C@H](Cc1ccccc1)NC(=O)[C@H](CCC(=O)O)NC(=O)[C@H](C)NC(=O)[C@H](CCCCN)NC(=O)[C@H](Cc1c[nH]c2ccccc12)NC(=O)[C@H](CCC(N)=O)NC(=O)[C@H](CCCNC(=N)N)NC(=O)[C@H](CCC(=O)O)NC(=O)[C@H](C)NC(=O)[C@H](CCC(=O)O)NC(=O)[C@H](CC(=O)O)NC(=O)[C@H](CC(C)C)NC(=O)[C@@H](NC(=O)[C@@H](N)CC(=O)O)[C@@H](C)O)C(=O)N[C@H](C(=O)N[C@@H](Cc1c[nH]cn1)C(=O)N[C@@H](Cc1c[nH]c2ccccc12)C(=O)N[C@@H](CCCCN)C(=O)N[C@@H](CC(N)=O)C(=O)N[C@@H](CCC(N)=O)C(=O)N[C@@H](Cc1ccccc1)C(=O)N[C@@H](CC(=O)O)C(=O)N[C@@H](Cc1c[nH]cn1)C(=O)N[C@@H](Cc1ccc(O)cc1)C(=O)N[C@@H](CO)C(=O)N[C@@H](CCCCN)C(=O)N[C@@H](CCC(N)=O)C(=O)N[C@@H](CC(=O)O)C(=O)N[C@@H](CCCNC(=N)N)C(=O)N[C@@H](CS)C(=O)N[C@@H](CO)C(=O)N[C@@H](CC(=O)O)C(=O)N[C@@H](CC(C)C)C(=O)O)C(C)C [T40] (H-DTLDEAERQWKAEFHRWSSYMVHWKNQFDHYSKQDRCSDL-OH)
incubation time for complete disappearance of monomeric T40 with IDE (IDE [2]; 100 mM KHPO4/KH2PO4 buffer pH 7.5, western blot KD69): ≤ 80 min
fate of dimeric T40 with IDE (IDE [2]; buffer pH 7.5, up to 80 min, western blot KD69): remained undigested
extent of T40 digestion by IDE at 30 min (IDE [3]; 60 µM T40, 50 nM IDE, buffer pH 7.5, RP-HPLC C4, UV 280 nm): near complete digestion
effect of NEP exposure on peptide level (NEP): remained unchanged

AEFHRWSSYMVHWK
cleaved bond (IDE (insulysin), 45 nM): Ser8-Tyr9, first_seen, 30 min; also recorded: His12-Trp13, first_seen, 30 min
cleaved bond (NEP (neprilysin), 772 nM): Ser8-Tyr9, first_seen, 30 min; also recorded: His12-Trp13, first_seen, 30 min; also recorded: H4-R5, first_seen, 30 min

CSCC[C@H](NC(=O)[C@H](Cc1ccc(O)cc1)NC(=O)[C@H](CO)NC(=O)[C@H](CO)NC(=O)[C@H](Cc1c[nH]c2ccccc12)NC(=O)[C@H](CCCNC(=N)N)NC(=O)[C@H](Cc1c[nH]cn1)NC(=O)[C@H](Cc1ccccc1)NC(=O)[C@H](CCC(=O)O)NC(=O)[C@H](C)N)C(=O)N[C@H](C(=O)N[C@@H](Cc1c[nH]cn1)C(=O)N[C@@H](Cc1c[nH]c2ccccc12)C(=O)N[C@@H](CCCCN)C(=O)O)C(C)C [AChE586-599] (H-AEFHRWSSYMVHWK-OH)
degradation of AChE586-599 by IDE (IDE [3]; 63 µM AChE586-599, 45 nM IDE, 30 min, buffer pH 7.5, RP-HPLC/MS): degraded
extent of AChE586-599 digestion by IDE (IDE [3]; 63 µM AChE586-599, 273 nM IDE, 30 min, RP-HPLC/MS): complete IDE digestion
time for complete digestion of AChE586-599 by NEP (NEP; 40 µM AChE586-599, 772 nM NEP, Tris-HCl pH 7.4, 1% Triton X-100, RP-HPLC/MS): ≤ 4 h
